# In ChEMBL document CHEMBL5325505, “Discovery of chiral 1,4-diarylazetidin-2-one-based hydroxamic acid derivatives as novel tubulin polymerization inhibitors with histone deacetylase inhibitory activity” (Bioorg Med Chem, 2023):
# pIC50: −log10 of the molar value. The source made the active and inactive calls. The rule behind the calls is not given here.
# How the values were obtained:
# BE(2)-C [1] = assay: Antiproliferative activity against human BE2C cells incubated for 48 hrs by MTT assay; assay type: functional, cell-based
# A549 = assay: Antiproliferative activity against human A549 cells incubated for 48 hrs by MTT assay; assay type: functional, cell-based; conditions: A549, 48 h
# U-87 MG = assay: Antiproliferative activity against human U-87 MG cells incubated for 48 hrs by MTT assay; assay type: functional, cell-based, U-87MG ATCC
# HCT-116 = assay: Antiproliferative activity against human HCT-116 cells incubated for 48 hrs by MTT assay; assay type: functional, cell-based; conditions: HCT-116, 48 h
# Histone deacetylase 1 = Histone deacetylase 1 (Homo sapiens, UniProt Q13547); assay: Inhibition of HDAC1 (unknown origin)
# BE(2)-C [2] = assay: Upregulation of acetylated SMC3 expression in human BE2C cells by Western blot analysis; assay type: functional, cell-based; conditions: dose 25-100 nM
# BE(2)-C [3] = assay: Upregulation of acetylated tubulin expression in human BE2C cells by Western blot analysis; assay type: functional, cell-based; conditions: dose 25-100 nM
# Tubulin (Sus scrofa) = Tubulin (Sus scrofa) (UniProt P02554+P02550); assay: (§1) Inhibition of tubulin polymerization of pig brain by absorbance based assay; conditions: dose 0.4-12 µM
# Tubulin = Tubulin (Sus scrofa, UniProt P02554+P02550); assay: as §1
# [4] = Aqueous solubility of compound at 1 mg incubated for 10 mins; assay type: physicochemical
# Tubulin (Homo sapiens) [5] = target: T1, Tubulin (Homo sapiens) (UniProt P68371+Q9H4B7+P0DPH7+P68366+Q13509+Q71U36+P04350+Q3ZCM7+P07437+P68363+Q9BQE3+Q6PEY2+Q13885+Q9BVA1+Q9BUF5); assay: Inhibition of tubulin polymerization in human BE2C cells assessed as disruption of fibrous microtubule network at 25 to 100 nM incubated for 24 hrs by immunofluorescence based microscopy; assay type: cell-based; conditions: dose 25-100 nM
# Tubulin (Homo sapiens) [6] = target: T1, Tubulin (Homo sapiens); assay: Inhibition of tubulin polymerization in human BE2C cells assessed as decrease in tubulin density at 25 to 100 nM incubated for 24 hrs by immunofluorescence based microscopy; assay type: cell-based; conditions: dose 25-100 nM
# BE(2)-C [7] = assay: Inhibition of colony formation in human BE2C cells incubated for 36 hrs by gentian violet staining based assay; assay type: functional, cell-based; conditions: dose 25-100 nM
# BE(2)-C [8] = assay: Inhibition of colony formation in human BE2C cells at 100 nM incubated for 36 hrs by gentian violet staining based assay relative to control; assay type: functional
# BE(2)-C [9] = assay: Upregulation of Bax expression in human BE2C cells at 25 to 100 nM by Western blot analysis; assay type: functional, cell-based; conditions: dose 25-100 nM
# BE(2)-C [10] = assay: Induction of cell cycle arrest in human BE2C cells assessed as accumulation at G2/M phase incubated for 24 hrs by RNase/PI staining based flow cytometry; assay type: functional
# BE(2)-C [11] = assay: Induction of cell cycle arrest in human BE2C cells assessed as accumulation at G2/M phase at 100 nM incubated for 24 hrs by RNase/PI staining based flow cytometry (reference value: 31 %); assay type: functional
# BE(2)-C [12] = assay: Induction of cell cycle arrest in human BE2C cells assessed as increase in cyclin B1 expression by Western blot analysis; assay type: functional, cell-based; conditions: dose 12.5-50 nM
# BE(2)-C [13] = assay: Induction of cell cycle arrest in human BE2C cells assessed as increase in phosphorylated H3 expression by Western blot analysis; assay type: functional, cell-based; conditions: dose 12.5-50 nM
# BE(2)-C [14] = assay: Induction of apoptosis in human BE2C cells assessed as viable cells at 25 nM incubated for 48 hrs by annexin V-FITC/PI staining based flow cytometry (reference value: 82.16 %); assay type: functional; conditions: read-out: Activity
# BE(2)-C [15] = assay: Induction of apoptosis in human BE2C cells assessed as early apoptotic cells at 25 nM incubated for 48 hrs by annexin V-FITC/PI staining based flow cytometry (reference value: 4.28 %); assay type: functional
# BE(2)-C [16] = assay: Induction of apoptosis in human BE2C cells assessed as late apoptotic cells at 25 nM incubated for 48 hrs by annexin V-FITC/PI staining based flow cytometry (reference value: 9.99 %); assay type: functional
# BE(2)-C [17] = assay: Induction of apoptosis in human BE2C cells assessed as necrotic cells at 25 nM incubated for 48 hrs by annexin V-FITC/PI staining based flow cytometry (reference value: 3.57 %); assay type: functional
# BE(2)-C [18] = assay: Induction of apoptosis in human BE2C cells assessed as viable cells at 50 nM incubated for 48 hrs by annexin V-FITC/PI staining based flow cytometry (reference value: 82.16 %); assay type: functional; conditions: read-out: Activity
# BE(2)-C [19] = assay: Induction of apoptosis in human BE2C cells assessed as early apoptotic cells at 50 nM incubated for 48 hrs by annexin V-FITC/PI staining based flow cytometry (reference value: 4.28 %); assay type: functional
# BE(2)-C [20] = assay: Induction of apoptosis in human BE2C cells assessed as viable cells at 100 nM incubated for 48 hrs by annexin V-FITC/PI staining based flow cytometry (reference value: 82.16 %); assay type: functional; conditions: read-out: Activity
# BE(2)-C [21] = assay: Induction of apoptosis in human BE2C cells assessed as early apoptotic cells at 100 nM incubated for 48 hrs by annexin V-FITC/PI staining based flow cytometry (reference value: 4.28 %); assay type: functional
# BE(2)-C [22] = assay: Induction of apoptosis in human BE2C cells assessed as late apoptotic cells at 100 nM incubated for 48 hrs by annexin V-FITC/PI staining based flow cytometry (reference value: 9.99 %); assay type: functional
# BE(2)-C [23] = assay: Induction of apoptosis in human BE2C cells assessed as necrotic cells at 100 nM incubated for 48 hrs by annexin V-FITC/PI staining based flow cytometry (reference value: 3.57 %); assay type: functional
# [24] = Metabolic stability in human liver microsomes assessed as compound remaining incubated for 5 mins; assay type: ADME, Microsome; conditions: read-out: Stability
# [25] = Metabolic stability in human liver microsomes assessed as compound remaining incubated for 10 mins; assay type: ADME, Microsome; conditions: read-out: Stability
# [26] = Metabolic stability in human liver microsomes assessed as compound remaining incubated for 20 mins; assay type: ADME, Microsome; conditions: microsomes, 20 min
# [27] = Metabolic stability in human liver microsomes assessed as compound remaining incubated for 30 mins; assay type: ADME, Microsome; conditions: liver microsomes, read-out: Stability
# [28] = Metabolic stability in human liver microsomes assessed as compound remaining incubated for 60 mins; assay type: ADME, Microsome; conditions: liver microsomes, read-out: Stability
# [29] = Metabolic stability in human liver microsomes assessed as intrinsic clearance; assay type: ADME, Microsome; conditions: read-out: CLH
# [30] = Metabolic stability in human liver microsomes assessed as half life; assay type: ADME, Microsome
# BE(2)-C [31] = assay: Antitumor activity against human BE2C cells xenografted in nude mouse assessed as tumor growth inhibition at 25 mg/kg, ip treated for every 3 days relative to control; assay type: functional; conditions: 72 h, time 3 day, read-out: TGI
# [32] = Toxicity in nude mouse xenografted with human BE2C cells assessed as adverse effect at 25 mg/kg, ip treated for every 3 days; assay type: organism-based; conditions: in vivo, 72 h, time 3 day
# Sequence of Tubulin (Sus scrofa) (P02550 whole entry, looked up): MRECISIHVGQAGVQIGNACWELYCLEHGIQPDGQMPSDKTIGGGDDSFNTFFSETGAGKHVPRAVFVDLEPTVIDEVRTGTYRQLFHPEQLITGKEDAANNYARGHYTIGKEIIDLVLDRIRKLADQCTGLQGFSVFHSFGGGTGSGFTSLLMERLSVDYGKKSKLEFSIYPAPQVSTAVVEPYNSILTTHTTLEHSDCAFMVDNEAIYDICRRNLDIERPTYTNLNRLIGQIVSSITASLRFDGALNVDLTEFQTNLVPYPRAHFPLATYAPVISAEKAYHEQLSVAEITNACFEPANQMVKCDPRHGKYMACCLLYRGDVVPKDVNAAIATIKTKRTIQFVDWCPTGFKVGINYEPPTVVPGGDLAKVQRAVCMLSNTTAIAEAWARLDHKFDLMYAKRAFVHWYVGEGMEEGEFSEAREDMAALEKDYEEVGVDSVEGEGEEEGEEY
# Sequence of Tubulin (Sus scrofa) (P02554 whole entry, looked up): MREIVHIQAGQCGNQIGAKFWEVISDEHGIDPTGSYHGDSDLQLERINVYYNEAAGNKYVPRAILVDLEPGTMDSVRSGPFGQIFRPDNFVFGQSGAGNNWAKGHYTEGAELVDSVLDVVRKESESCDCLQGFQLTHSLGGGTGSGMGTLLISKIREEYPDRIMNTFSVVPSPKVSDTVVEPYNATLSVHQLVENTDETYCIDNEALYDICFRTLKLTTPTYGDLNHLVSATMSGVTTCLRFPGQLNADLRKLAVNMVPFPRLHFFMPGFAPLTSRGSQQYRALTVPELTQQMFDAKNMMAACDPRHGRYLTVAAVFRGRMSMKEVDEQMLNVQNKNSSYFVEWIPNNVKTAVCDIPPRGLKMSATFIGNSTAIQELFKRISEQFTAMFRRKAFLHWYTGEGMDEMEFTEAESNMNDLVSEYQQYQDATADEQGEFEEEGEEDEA
# Sequence of Histone deacetylase 1 (Q13547 whole entry): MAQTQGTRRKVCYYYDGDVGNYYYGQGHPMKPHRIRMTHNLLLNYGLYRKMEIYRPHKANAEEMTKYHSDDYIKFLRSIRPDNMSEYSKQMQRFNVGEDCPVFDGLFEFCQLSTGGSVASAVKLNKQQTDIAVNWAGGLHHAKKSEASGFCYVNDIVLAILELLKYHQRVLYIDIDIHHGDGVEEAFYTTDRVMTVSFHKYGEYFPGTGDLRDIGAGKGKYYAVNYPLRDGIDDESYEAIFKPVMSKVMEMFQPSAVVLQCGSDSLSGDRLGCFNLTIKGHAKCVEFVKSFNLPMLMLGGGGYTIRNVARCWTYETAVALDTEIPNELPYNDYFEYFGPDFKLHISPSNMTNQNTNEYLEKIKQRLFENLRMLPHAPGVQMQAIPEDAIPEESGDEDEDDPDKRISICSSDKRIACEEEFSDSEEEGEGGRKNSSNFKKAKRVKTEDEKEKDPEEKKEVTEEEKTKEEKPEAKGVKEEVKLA
smiles,measurement,setting,value
COc1ccc([C@H]2[C@H](COC(=O)c3ccc(C(=O)NO)cc3)C(=O)N2c2cc(OC)c(OC)c(OC)c2)cc1O,pIC50,BE(2)-C [1],7.77
same,pIC50,A549,7.28
same,pIC50,U-87 MG,7.25
same,pIC50,HCT-116,7.29
same,pIC50,Histone deacetylase 1,6.81
same,Activity,BE(2)-C [2],Dose-Dependent Effect
same,Activity,BE(2)-C [3],Dose-Dependent Effect
same,inhibition,Tubulin (Sus scrofa),Dose-Dependent Effect
same,IC50,Tubulin,5400 nM
same,solubility at 10 min,[4],102 µg/mL
same,inhibition,Tubulin (Homo sapiens) [5],Active
same,inhibition,Tubulin (Homo sapiens) [6],Active
same,inhibition,BE(2)-C [7],Active
same,inhibition at 0.1 µM,BE(2)-C [8],100%
same,Activity,BE(2)-C [9],Active
same,Activity,BE(2)-C [10],Dose-Dependent Effect
same,Activity,BE(2)-C [11],~77%
same,Activity,BE(2)-C [12],Dose-Dependent Effect
same,Activity,BE(2)-C [13],Dose-Dependent Effect
same,viability at 0.025 µM,BE(2)-C [14],62.1%
same,Activity,BE(2)-C [15],11.81%
same,Activity,BE(2)-C [16],19.01%
same,Activity,BE(2)-C [17],7.06%
same,viability at 0.05 µM,BE(2)-C [18],50.2%
same,Activity,BE(2)-C [19],12.23%
same,viability at 0.1 µM,BE(2)-C [20],29.2%
same,Activity,BE(2)-C [21],17.27%
same,Activity,BE(2)-C [22],44%
same,Activity,BE(2)-C [23],9.54%
same,remaining at 5 min,[24],89.4%
same,remaining at 10 min,[25],80%
same,Stability,[26],61.3%
same,remaining at 0.5 h,[27],58.2%
same,remaining at 1 h,[28],55.3%
same,CLint scaled,[29],18.1 mL/min/kg
same,t1/2,[30],1.15 h
same,inhibition in vivo at 25 mg/kg,BE(2)-C [31],67%
same,Activity,[32],Non-Toxic
